Measurements: PubChem BioAssay AID256 (DTP/NCI, 2004)
Where “and” joins values, the source holds several entries; their conditions need not be identical. Equal values may be shown once. Toxic doses and inconclusive results are not listed. The calls were made as follows: active = survival T/C of 150% or more; inactive = T/C below 125% in these data.

System: CD2F1 mice, L1210 leukemia ip, survival T/C
Experiment: NCI In Vivo Anticancer Drug Screen. Data for tumor model L1210 Leukemia (intraperitoneal) in CD2F1 (CDF1) mice
Settings: higher = longer survival
In short: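 Each value reflects a quotient of treated over vehicle control outcomes in mice with a transplanted tumor.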

[1] = endpoint: median survival time, dose: 12.5 mg/kg/injection, schedule: Q01DX005 (ip), vehicle: saline with Tween-80
[2] = endpoint: median survival time, dose: 25.0 mg/kg/injection, schedule: Q01DX005 (ip), vehicle: saline with Tween-80
[3] = endpoint: median survival time, dose: 50.0 mg/kg/injection, schedule: Q01DX005 (ip), vehicle: saline with Tween-80
[4] = endpoint: median survival time, dose: 100.0 mg/kg/injection, schedule: Q01DX005 (ip), vehicle: saline with Tween-80
[5] = endpoint: mean survival time, dose: 50.0 mg/kg/injection, schedule: Q01DX009 (ip), vehicle: saline with Tween-80
[6] = endpoint: mean survival time, dose: 100.0 mg/kg/injection, schedule: Q01DX009 (ip), vehicle: saline with Tween-80
[7] = endpoint: mean survival time, dose: 100.0 mg/kg/injection, schedule: Q01DX001 (ip), vehicle: saline with Tween-80
[8] = endpoint: mean survival time, dose: 200.0 mg/kg/injection, schedule: Q01DX001 (ip), vehicle: saline with Tween-80
[9] = endpoint: mean survival time, dose: 400.0 mg/kg/injection, schedule: Q01DX001 (ip), vehicle: saline with Tween-80
[10] = endpoint: mean survival time, dose: 100.0 mg/kg/injection, schedule: Q04DX003 (ip), vehicle: saline with Tween-80
[11] = endpoint: mean survival time, dose: 200.0 mg/kg/injection, schedule: Q01DX009 (ip), vehicle: saline with Tween-80
[12] = endpoint: mean survival time, dose: 200.0 mg/kg/injection, schedule: Q04DX003 (ip), vehicle: saline with Tween-80
[13] = endpoint: mean survival time, dose: 400.0 mg/kg/injection, schedule: Q01DX009 (ip), vehicle: saline with Tween-80
[14] = endpoint: mean survival time, dose: 400.0 mg/kg/injection, schedule: Q04DX003 (ip), vehicle: saline with Tween-80
[15] = endpoint: mean survival time, dose: 100.0 mg/kg/injection, schedule: Q04DX002 (ip), vehicle: saline
[16] = endpoint: mean survival time, dose: 200.0 mg/kg/injection, schedule: Q04DX002 (ip), vehicle: saline
[17] = endpoint: mean survival time, dose: 100.0 mg/kg/injection, schedule: Q04DX002 (ip), vehicle: saline with Tween-80
[18] = endpoint: mean survival time, dose: 200.0 mg/kg/injection, schedule: Q04DX002 (ip), vehicle: saline with Tween-80

Measured: T/C

N#Cc1nn(C2OC(COC(=O)c3ccccc3)C(OC(=O)c3ccccc3)C2OC(=O)c2ccccc2)c2nc[nH]c(=O)c12 (configuration not stated)
inactive: [1] 107 % of control | [2] 103 % of control | [3] 97 % of control | [4] 97 % of control | endpoint: median survival time, dose: 200.0 mg/kg/injection, schedule: Q01DX005 (ip), vehicle: saline with Tween-80 119 % of control

CCCSCCSCCC
inactive: endpoint: mean survival time, dose: 25.0 mg/kg/injection, schedule: Q01DX009 (ip), vehicle: saline with Tween-80 103 % of control | [5] 103 % of control | [6] 117 % of control

Nc1nc[nH]c(=O)c1N
inactive: [7] 107 % of control | [8] 107 % of control | [9] 102 % of control

C1CC2CCCN2C1
inactive: endpoint: mean survival time, dose: 12.5 mg/kg/injection, schedule: Q04DX003 (ip), vehicle: acetone 96 % of control | endpoint: mean survival time, dose: 25.0 mg/kg/injection, schedule: Q04DX003 (ip), vehicle: acetone 102 % of control | endpoint: mean survival time, dose: 50.0 mg/kg/injection, schedule: Q04DX003 (ip), vehicle: acetone 97 % of control

Cc1ccc(C(=O)C2CC(Br)C(Br)CC2C(=O)c2ccc(C)cc2)cc1 (configuration not stated)
inactive: [6] 90 % of control | [10] 100 % of control | [11] 86 % of control | [12] 100 % of control | [13] 86 % of control | [14] 97 % of control

c1ccc(C(OOC(c2ccccc2)(c2ccccc2)c2ccccc2)(c2ccccc2)c2ccccc2)cc1
inactive: [5] 90 % of control | [6] 90 % of control | [11] 90 % of control

COc1ccc(C2C3CCC(C3)C2N)cc1 (configuration not stated)
inactive: endpoint: mean survival time, dose: 5.0 mg/kg/injection, schedule: Q01DX009 (ip), vehicle: saline 96 % of control | endpoint: mean survival time, dose: 10.0 mg/kg/injection, schedule: Q01DX009 (ip), vehicle: saline 96 % of control | endpoint: mean survival time, dose: 20.0 mg/kg/injection, schedule: Q01DX009 (ip), vehicle: saline 92 % of control | endpoint: mean survival time, dose: 25.0 mg/kg/injection, schedule: Q04DX003 (ip), vehicle: saline 101 % of control | endpoint: mean survival time, dose: 50.0 mg/kg/injection, schedule: Q04DX003 (ip), vehicle: saline 96 % of control | endpoint: mean survival time, dose: 100.0 mg/kg/injection, schedule: Q04DX003 (ip), vehicle: saline 90 % of control

OCc1ccn2c1CCC2
inactive: endpoint: mean survival time, dose: 12.5 mg/kg/injection, schedule: Q01DX009 (ip), vehicle: Klucel (hydroxypropylcellulose) (HPC) 101 % of control | endpoint: mean survival time, dose: 50.0 mg/kg/injection, schedule: Q01DX009 (ip), vehicle: Klucel (hydroxypropylcellulose) (HPC) 100 % of control | endpoint: mean survival time, dose: 100.0 mg/kg/injection, schedule: Q01DX009 (ip), vehicle: Klucel (hydroxypropylcellulose) (HPC) 101 % of control

CN(C)C(=O)C1C2C=CC(CCC2)C1C(=O)N(C)C (configuration not stated)
inactive: [15] 91 % of control | [16] 88 % of control | endpoint: mean survival time, dose: 400.0 mg/kg/injection, schedule: Q04DX002 (ip), vehicle: saline 91 % of control

CCOC(=O)c1c(C)[nH]c(C)cc1=O
inactive: [15] 103 % of control | [16] 108 % of control

COC(=O)Nc1ccc(C)cc1[N+](=O)[O-]
inactive: endpoint: mean survival time, dose: 100.0 mg/kg/injection, schedule: Q04DX003 (ip), vehicle: other 106 % of control | endpoint: mean survival time, dose: 200.0 mg/kg/injection, schedule: Q04DX003 (ip), vehicle: other 106 % of control | endpoint: mean survival time, dose: 400.0 mg/kg/injection, schedule: Q04DX003 (ip), vehicle: other 109 % of control

OCCc1ccccc1
inactive: endpoint: mean survival time, dose: 50.0 mg/kg/injection, schedule: Q03HX024 (ip), vehicle: saline with Tween-80 102 % of control | endpoint: mean survival time, dose: 100.0 mg/kg/injection, schedule: Q03HX024 (ip), vehicle: saline with Tween-80 100 % of control | [10] 96 % of control | endpoint: mean survival time, dose: 125.0 mg/kg/injection, schedule: Q01DX009 (ip), vehicle: saline 105 % of control | endpoint: mean survival time, dose: 200.0 mg/kg/injection, schedule: Q03HX024 (ip), vehicle: saline with Tween-80 100 % of control | [12] 93 % of control | endpoint: mean survival time, dose: 250.0 mg/kg/injection, schedule: Q01DX009 (ip), vehicle: saline 102 % of control | [14] 93 % of control | endpoint: mean survival time, dose: 500.0 mg/kg/injection, schedule: Q01DX001 (ip), vehicle: saline with Tween-80 106 % of control | endpoint: mean survival time, dose: 500.0 mg/kg/injection, schedule: Q01DX009 (ip), vehicle: saline 103 % of control

Nc1cc(C(F)(F)F)ccc1[N+](=O)[O-]
inactive: [10] 100 % of control | [12] 100 % of control | [14] 104 % of control

C=CC1(O)CCCCC1
inactive: [7] 100 % of control | [8] 100 % of control | [9] 97 % of control

CNc1ccc(Br)c2c1C(=O)c1ccccc1C2=O
inactive: [10] 97 % of control | [12] 101 % of control | [14] 95 % of control

CC(=O)C[n+]1ccccc1Sc1ccc(Cl)cc1
inactive: [1] 100 % of control | [2] 101 % of control | [3] 97 % of control | [4] 107 % of control

COC(=O)c1cccn1C(=O)c1cc(OC)c(OC)cc1[N+](=O)[O-]
inactive: endpoint: mean survival time, dose: 50.0 mg/kg/injection, schedule: Q04DX002 (ip), vehicle: saline with Tween-80 96 % of control | [17] 92 % of control and 93 % of control | [18] 96 % of control | endpoint: mean survival time, dose: 400.0 mg/kg/injection, schedule: Q04DX002 (ip), vehicle: saline with Tween-80 89 % of control

CC(C)CCCC(C)C1CCC2C3C(=O)C4=CC(=O)CCC4(C)C3CCC12C (configuration not stated)
inactive: [7] 94 % of control | [8] 96 % of control | [9] 90 % of control

O=c1[nH]c(-c2ccccc2)nc(Cc2ccccc2)c1CCO
inactive: [10] 89 % of control | [12] 89 % of control | [14] 91 % of control

CC(=O)Nc1ccc(Br)c(NC(C)=O)n1
inactive: [10] 95 % of control | [12] 98 % of control | [14] 104 % of control

CCN(CC)c1cccc(OC(=O)NC)c1
inactive: endpoint: mean survival time, dose: 5.0 mg/kg/injection, schedule: Q01DX001 (ip), vehicle: saline 102 % of control | endpoint: mean survival time, dose: 10.0 mg/kg/injection, schedule: Q01DX001 (ip), vehicle: saline 102 % of control | endpoint: mean survival time, dose: 20.0 mg/kg/injection, schedule: Q01DX001 (ip), vehicle: saline 102 % of control

CC(C)C(C(N)=O)C(N)=O
inactive: [17] 100 % of control | [18] 100 % of control

O=C(O)C(O)C(O)C(O)C(O)C(O)CO (configuration not stated)
inactive: endpoint: mean survival time, dose: 100.0 mg/kg/injection, schedule: Q01DX009 (ip), vehicle: saline 98 % of control | endpoint: mean survival time, dose: 200.0 mg/kg/injection, schedule: Q01DX009 (ip), vehicle: saline 98 % of control | endpoint: mean survival time, dose: 400.0 mg/kg/injection, schedule: Q01DX009 (ip), vehicle: saline 97 % of control

CCN(CC)c1ccc(N=Cc2cc(=O)n(C)c3ccccc23)cc1
inactive: [7] 102 % of control | [9] 91 % of control

CSC(=N/N=C/c1ccccc1O)SC
inactive: [10] 98 % of control | [12] 96 % of control | [14] 96 % of control

CC(C)(C)OC(=O)NC(CO)C(=O)O (configuration not stated)
inactive: [10] 92 % of control | [12] 86 % of control | [14] 94 % of control

Nc1nc(Br)c(Br)nc1N
inactive: endpoint: mean survival time, dose: 100.0 mg/kg/injection, schedule: Q01DX009 (ip), vehicle: other 92 % of control | endpoint: mean survival time, dose: 200.0 mg/kg/injection, schedule: Q01DX009 (ip), vehicle: other 103 % of control | endpoint: mean survival time, dose: 400.0 mg/kg/injection, schedule: Q01DX009 (ip), vehicle: other 95 % of control

Nc1cc(Cl)c(I)cc1Cl
inactive: endpoint: mean survival time, dose: 100.0 mg/kg/injection, schedule: Q01DX001 (ip), vehicle: saline 102 % of control | endpoint: mean survival time, dose: 200.0 mg/kg/injection, schedule: Q01DX001 (ip), vehicle: saline 102 % of control | endpoint: mean survival time, dose: 400.0 mg/kg/injection, schedule: Q01DX001 (ip), vehicle: saline 101 % of control

Oc1ccc(C(c2ccccc2)(c2ccccc2)c2ccccc2)cc1
inactive: [6] 94 % of control | [11] 89 % of control | [13] 91 % of control

CC(=O)Nc1cccc2ccccc12
inactive: [6] 95 % of control | [11] 97 % of control

CCCCCCCCCCOC(=O)Nc1cccc(O)c1
inactive: [10] 95 % of control | [12] 95 % of control | [14] 98 % of control

Nc1ccc2c(c1)C=CCS2
inactive: [6] 102 % of control | [10] 104 % of control | [11] 98 % of control | [12] 98 % of control | [13] 90 % of control | [14] 104 % of control
